Reference: ChEMBL document CHEMBL1201862, “PubChem BioAssay data set” (2004)
Blank lines part the entries; values can stand above or below the compound they belong to. The source made the active and inactive calls.

Legend:
[1] = target: Cyclin-dependent kinase 5/CDK5 activator 1 (Homo sapiens, UniProt Q00535); assay: blockade of human CDK5 activity – biochemical, cherry-picked samples, set 2, dose response (AID 504545)
[2] = target: T1, Eukaryotic translation initiation factor 2-alpha kinase 3 (Homo sapiens, UniProt Q9NZJ5); assay: Counterscreen assay for PERK inhibitors: Dose response cell-based high throughput screening assay to measure inhibition of PERK at 6 hours. [Related pubchem assays: 1522, 1416 ]; format: functional
T1 sequence (Q9NZJ5 whole entry): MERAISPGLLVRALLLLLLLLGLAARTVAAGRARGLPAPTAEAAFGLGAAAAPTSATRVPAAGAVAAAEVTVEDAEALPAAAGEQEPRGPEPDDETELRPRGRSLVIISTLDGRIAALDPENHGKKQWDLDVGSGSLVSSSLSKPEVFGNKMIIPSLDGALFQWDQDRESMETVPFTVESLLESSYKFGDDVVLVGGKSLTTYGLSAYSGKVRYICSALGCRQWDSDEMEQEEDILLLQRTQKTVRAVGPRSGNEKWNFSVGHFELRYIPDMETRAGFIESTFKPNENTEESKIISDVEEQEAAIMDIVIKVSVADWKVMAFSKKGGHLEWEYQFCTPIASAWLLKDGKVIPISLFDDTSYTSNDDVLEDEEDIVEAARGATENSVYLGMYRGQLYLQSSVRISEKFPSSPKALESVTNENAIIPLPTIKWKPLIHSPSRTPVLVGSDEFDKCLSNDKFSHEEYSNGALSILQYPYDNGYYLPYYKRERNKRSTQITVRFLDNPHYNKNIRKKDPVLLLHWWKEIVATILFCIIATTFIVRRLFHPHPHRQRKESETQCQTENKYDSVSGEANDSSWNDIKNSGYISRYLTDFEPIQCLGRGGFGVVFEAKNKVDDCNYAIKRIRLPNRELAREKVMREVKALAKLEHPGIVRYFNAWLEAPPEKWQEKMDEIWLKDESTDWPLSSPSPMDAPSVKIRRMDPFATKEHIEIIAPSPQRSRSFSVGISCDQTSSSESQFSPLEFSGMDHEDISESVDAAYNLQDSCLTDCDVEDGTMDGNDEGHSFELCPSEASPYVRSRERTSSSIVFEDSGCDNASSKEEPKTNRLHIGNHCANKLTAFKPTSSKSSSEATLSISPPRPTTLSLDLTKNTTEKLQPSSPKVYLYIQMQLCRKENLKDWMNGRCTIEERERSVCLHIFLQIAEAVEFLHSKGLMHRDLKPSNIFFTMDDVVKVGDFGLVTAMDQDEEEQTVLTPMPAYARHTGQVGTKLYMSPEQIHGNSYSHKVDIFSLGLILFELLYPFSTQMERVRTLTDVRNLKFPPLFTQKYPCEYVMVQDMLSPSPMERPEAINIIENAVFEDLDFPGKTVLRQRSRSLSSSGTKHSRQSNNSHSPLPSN

[3] = target: T1, Eukaryotic translation initiation factor 2-alpha kinase 3; assay: Dose response cell-based high-throughput screening assay to measure PERK inhibition. [Related pubchem assays: 1416 ]; format: functional
Estrogen receptor beta = Estrogen receptor beta (Homo sapiens, UniProt Q92731);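 further: recombinant ER-beta bound to coactivator SRC1 peptide in presence of estradiol agonist; inhibitors block coactivator peptide binding and lower the FRET signal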
Estrogen receptor beta, sequence (Q92731 whole entry): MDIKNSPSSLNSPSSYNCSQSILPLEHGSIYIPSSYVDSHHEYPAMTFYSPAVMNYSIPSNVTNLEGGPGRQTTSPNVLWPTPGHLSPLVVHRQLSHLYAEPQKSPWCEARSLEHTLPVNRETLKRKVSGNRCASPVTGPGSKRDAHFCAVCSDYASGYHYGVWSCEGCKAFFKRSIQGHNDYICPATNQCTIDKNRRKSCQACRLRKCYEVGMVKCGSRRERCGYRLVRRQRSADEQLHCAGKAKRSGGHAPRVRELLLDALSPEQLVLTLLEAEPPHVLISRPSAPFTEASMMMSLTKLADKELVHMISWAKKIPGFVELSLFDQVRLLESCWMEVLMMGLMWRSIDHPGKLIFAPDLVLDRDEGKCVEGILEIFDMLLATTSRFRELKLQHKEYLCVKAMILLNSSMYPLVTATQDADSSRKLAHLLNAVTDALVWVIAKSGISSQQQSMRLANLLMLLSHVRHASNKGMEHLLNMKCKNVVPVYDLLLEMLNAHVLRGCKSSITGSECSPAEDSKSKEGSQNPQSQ

[4] = target: T2, Voltage-dependent T-type calcium channel subunit alpha-1H (Homo sapiens, UniProt O95180); format: functional
T2 sequence (O95180 whole entry): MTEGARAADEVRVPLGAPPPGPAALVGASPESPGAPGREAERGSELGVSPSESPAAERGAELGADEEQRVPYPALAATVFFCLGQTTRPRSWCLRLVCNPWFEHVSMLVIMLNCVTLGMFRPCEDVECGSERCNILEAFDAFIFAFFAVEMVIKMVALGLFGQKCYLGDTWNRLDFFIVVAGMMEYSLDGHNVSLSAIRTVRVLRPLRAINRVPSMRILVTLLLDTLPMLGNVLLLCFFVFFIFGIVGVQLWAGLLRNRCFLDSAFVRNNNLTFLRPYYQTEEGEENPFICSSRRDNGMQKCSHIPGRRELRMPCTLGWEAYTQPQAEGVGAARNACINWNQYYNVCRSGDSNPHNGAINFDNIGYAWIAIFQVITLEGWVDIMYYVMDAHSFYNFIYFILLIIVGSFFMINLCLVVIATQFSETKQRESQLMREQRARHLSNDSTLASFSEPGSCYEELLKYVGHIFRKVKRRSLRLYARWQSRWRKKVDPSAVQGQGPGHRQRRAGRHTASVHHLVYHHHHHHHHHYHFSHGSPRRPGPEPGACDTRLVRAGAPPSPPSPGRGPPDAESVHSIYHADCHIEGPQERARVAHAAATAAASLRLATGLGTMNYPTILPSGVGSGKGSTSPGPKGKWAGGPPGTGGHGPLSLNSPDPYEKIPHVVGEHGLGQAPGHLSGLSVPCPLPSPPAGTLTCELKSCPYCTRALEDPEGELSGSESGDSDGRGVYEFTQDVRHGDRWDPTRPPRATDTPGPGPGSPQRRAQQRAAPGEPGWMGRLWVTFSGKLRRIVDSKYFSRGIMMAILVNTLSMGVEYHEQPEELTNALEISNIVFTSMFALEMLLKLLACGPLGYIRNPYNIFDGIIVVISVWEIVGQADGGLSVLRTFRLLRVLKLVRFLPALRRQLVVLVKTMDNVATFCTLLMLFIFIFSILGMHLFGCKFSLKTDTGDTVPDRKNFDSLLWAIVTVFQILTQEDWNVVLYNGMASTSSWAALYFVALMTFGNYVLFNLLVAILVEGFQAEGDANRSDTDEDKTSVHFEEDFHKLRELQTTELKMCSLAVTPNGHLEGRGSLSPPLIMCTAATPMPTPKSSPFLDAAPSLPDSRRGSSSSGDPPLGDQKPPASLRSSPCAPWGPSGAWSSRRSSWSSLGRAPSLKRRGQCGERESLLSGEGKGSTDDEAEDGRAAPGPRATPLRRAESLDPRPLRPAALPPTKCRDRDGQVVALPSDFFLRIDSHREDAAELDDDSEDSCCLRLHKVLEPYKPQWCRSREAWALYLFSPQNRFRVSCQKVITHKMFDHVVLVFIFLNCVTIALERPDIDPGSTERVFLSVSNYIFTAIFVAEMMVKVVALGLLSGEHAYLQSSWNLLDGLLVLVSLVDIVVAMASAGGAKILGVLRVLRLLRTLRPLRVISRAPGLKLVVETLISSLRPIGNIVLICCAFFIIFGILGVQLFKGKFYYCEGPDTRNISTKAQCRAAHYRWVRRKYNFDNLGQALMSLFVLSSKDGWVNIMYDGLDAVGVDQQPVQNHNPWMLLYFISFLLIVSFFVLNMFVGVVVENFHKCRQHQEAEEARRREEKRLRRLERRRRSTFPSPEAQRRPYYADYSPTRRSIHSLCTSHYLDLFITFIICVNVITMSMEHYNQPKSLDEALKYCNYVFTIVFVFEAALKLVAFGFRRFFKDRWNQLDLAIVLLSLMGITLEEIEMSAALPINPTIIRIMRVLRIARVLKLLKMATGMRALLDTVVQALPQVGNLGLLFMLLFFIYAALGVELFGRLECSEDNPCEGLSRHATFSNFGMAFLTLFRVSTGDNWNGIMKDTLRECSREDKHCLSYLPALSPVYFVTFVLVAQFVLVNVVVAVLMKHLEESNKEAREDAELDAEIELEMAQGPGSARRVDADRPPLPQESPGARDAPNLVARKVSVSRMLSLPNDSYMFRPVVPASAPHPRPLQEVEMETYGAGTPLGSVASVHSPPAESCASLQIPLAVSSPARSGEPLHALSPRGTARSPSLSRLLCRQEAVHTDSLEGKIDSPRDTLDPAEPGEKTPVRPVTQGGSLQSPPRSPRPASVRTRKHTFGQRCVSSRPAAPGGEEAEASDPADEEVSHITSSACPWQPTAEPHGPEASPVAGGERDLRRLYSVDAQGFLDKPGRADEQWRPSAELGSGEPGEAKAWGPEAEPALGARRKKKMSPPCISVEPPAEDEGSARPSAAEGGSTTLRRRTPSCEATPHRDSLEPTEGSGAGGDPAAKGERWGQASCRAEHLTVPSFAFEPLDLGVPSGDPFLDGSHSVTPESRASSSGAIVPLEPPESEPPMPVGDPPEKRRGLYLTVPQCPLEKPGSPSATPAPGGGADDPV

[5] = target: T2, Voltage-dependent T-type calcium channel subunit alpha-1H; assay: Inhibitors of T-Type Calcium Channels. [Related pubchem assays (depositor defined):AID449739, AID463087, AID489005, AID493041, AID504579, AID504584, AID504619, AID504628]; format: functional
[6] = target: Metabotropic glutamate receptor 4 (Rattus norvegicus, UniProt P31423); assay: Modulation of the Metabotropic Glutamate Receptor mGluR4: Rat PAM Potency. [Related pubchem assays (depositor defined):AID2437, AID2807]; format: functional
[7] = target: T3, Corticotropin-releasing factor receptor 2/Corticotropin-releasing factor-binding protein (Homo sapiens, UniProt P24387+Q13324); assay: Dose Response confirmation of uHTS hits for small molecule antagonists of the CRF-binding protein and CRF-R2 receptor complex.; format: functional; conditions: read-out: IC50_Mean
T3 sequence (Q13324 whole entry): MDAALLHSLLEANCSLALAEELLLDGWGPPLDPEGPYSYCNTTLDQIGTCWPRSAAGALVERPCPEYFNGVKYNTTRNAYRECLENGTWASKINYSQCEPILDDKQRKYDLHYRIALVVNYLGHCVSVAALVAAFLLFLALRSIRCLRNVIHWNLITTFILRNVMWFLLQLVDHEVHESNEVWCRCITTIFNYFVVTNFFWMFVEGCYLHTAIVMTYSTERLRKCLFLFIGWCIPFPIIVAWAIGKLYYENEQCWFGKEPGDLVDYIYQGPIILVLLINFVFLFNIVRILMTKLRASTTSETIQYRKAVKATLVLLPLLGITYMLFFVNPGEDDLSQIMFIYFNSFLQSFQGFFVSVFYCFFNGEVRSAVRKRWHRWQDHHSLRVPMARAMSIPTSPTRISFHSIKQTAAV
T3 sequence (P24387 whole entry): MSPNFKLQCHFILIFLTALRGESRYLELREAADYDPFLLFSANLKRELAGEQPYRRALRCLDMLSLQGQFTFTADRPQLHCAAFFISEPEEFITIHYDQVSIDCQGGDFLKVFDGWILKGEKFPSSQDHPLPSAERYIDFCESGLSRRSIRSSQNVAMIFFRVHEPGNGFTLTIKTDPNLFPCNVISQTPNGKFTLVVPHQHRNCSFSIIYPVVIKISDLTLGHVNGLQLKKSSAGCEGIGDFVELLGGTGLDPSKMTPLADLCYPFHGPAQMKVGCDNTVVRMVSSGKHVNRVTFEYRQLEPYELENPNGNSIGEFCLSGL

[8] = target: T3, Corticotropin-releasing factor receptor 2/Corticotropin-releasing factor-binding protein; assay: activators of CRF receptor 2 with binding protein – uHTS hits, confirmation (AID 602473); format: functional; conditions: read-out: EC50_Mean
[9] = target: Acyl-homoserine lactone acylase PvdQ (Pseudomonas aeruginosa (strain LESB58), UniProt Q9I194); assay: PvdQ acylase enzyme activity blockers – biochemical, fluorescence, plate reader and imaging, cherry-picks, dose response (AID 493231)
Acyl-homoserine lactone acylase PvdQ, sequence (Q9I194 24-193 limits assumed): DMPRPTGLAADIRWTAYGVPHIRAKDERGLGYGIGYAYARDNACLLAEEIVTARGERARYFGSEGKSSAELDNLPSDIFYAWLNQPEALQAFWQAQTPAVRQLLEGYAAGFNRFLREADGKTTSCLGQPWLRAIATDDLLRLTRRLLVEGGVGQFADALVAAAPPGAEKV
Acyl-homoserine lactone acylase PvdQ, sequence (Q9I194 217-762 limits assumed): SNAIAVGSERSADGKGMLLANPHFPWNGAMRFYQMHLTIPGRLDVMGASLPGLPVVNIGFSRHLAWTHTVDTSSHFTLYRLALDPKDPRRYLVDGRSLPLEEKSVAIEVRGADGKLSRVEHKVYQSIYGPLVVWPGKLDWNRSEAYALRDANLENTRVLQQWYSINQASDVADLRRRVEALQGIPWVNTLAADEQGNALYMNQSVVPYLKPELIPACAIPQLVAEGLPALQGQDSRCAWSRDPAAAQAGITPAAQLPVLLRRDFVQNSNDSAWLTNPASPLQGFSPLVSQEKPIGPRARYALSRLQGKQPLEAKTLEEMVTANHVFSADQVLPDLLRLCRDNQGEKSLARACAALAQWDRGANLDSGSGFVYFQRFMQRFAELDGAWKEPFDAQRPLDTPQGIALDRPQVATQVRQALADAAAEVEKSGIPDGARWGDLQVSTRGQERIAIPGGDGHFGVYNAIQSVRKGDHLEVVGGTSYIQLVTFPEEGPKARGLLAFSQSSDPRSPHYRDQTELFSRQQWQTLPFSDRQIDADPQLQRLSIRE

[10] = blockers of CRF-binding protein–CRF-R2 complex – cell-based, uHTS hits, 384-well, dose response (AID 651639); format: functional, Homo sapiens; conditions: read-out: IC50_Mean
Estrogen receptor = target: T4, Estrogen receptor (Homo sapiens, UniProt P03372); assay: ERα coactivator recruitment enhancers – biochemical, TR-FRET, ERα LBD, dose response (AID 737)
T4 sequence (P03372 whole entry): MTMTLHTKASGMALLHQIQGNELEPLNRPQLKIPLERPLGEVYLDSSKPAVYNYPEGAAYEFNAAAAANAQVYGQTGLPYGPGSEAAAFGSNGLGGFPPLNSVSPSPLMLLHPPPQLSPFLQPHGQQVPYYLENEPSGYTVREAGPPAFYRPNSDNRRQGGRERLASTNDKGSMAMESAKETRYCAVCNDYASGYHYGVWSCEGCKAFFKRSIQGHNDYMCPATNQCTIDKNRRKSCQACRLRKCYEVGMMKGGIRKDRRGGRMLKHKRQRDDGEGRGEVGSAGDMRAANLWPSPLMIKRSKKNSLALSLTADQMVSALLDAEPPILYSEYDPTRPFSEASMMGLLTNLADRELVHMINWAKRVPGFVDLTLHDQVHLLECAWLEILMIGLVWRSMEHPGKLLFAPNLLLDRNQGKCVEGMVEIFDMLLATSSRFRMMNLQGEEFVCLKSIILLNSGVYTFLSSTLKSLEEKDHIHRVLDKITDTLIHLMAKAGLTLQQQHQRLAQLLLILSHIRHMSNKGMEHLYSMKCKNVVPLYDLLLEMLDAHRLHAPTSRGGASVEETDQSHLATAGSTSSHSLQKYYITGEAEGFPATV

AC50 [1]: 8.21 µM (active)
Compound: Nc1nc(Nc2cccc(Cl)c2)nc(NCCO)c1[N+](=O)[O-]

EC50 [6]: 1.25 µM (active)
Compound: O=C(Nc1ccc(Cl)c(Cl)c1)c1ccccn1

EC50 (Estrogen receptor): 12.8 µM (active)
Compound: Cc1nn(-c2ccc(Cl)cc2)c2sc(C(=O)N3CCN(c4ccccn4)CC3)cc12

Further lines, the compound ahead of its results:

Compound: C[C@]12CS(=O)(=O)C[C@H]1SC(=S)N2c1ccccc1
EC50 [2]: > 55.7 µM (not active)
EC50 [3]: > 55.7 µM (not active)

Compound: COc1ccc(-c2noc(CCC(=O)N3CCN(c4cccc(C(F)(F)F)c4)CC3)n2)cc1
IC50 (Estrogen receptor beta): > 50 µM (not active)
EC50 [4]: 1.62 µM (active)
EC50 [5]: 4.32 µM (active)

Compound: O=[N+]([O-])c1cccnc1Sc1ccc(Cl)cc1
IC50 [7]: < 0.368 µM (active)
EC50 [8]: > 53 µM (inactive)
AC50 [9]: 30.1 µM (active)
IC50 [10]: 3.1 µM (active)
